Test results as given in ChEMBL document CHEMBL1134216, “Synthesis, modelling and NK1 antagonist evaluation of a non-rigid cyclopropane-containing analogue of CP-99,994” (Bioorg Med Chem Lett, 2001).

Biological target: Substance-P receptor (Homo sapiens, UniProt P25103)
Test: Binding affinity towards Tachykinin receptor 1 expressed in CHO cells using [3H][Pro9]-SP as radioligand
Assay type: cell-based

Chain of Substance-P receptor (P25103 whole entry): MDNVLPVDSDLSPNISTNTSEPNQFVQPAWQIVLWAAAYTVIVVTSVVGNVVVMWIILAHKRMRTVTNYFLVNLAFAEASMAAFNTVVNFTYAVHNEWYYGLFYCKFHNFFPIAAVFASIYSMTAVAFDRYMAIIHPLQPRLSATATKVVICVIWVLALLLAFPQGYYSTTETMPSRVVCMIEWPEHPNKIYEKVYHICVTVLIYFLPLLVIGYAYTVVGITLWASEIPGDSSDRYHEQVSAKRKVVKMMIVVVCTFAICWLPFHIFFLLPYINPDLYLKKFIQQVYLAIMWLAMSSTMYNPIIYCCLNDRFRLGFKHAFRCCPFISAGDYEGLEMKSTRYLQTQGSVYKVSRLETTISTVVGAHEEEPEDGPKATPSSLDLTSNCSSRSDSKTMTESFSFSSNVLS

| Structure (SMILES) | Ki [nM] |
| --- | --- |
| CNC(c1ccccc1)C1(NCc2ccccc2OC)CC1 (configuration not stated) | 150 |
| CNC(c1ccccc1)C1(NCc2cc(C(F)(F)F)cc(C(F)(F)F)c2)CC1 (racemic) | 620 |
